pEC50, pKi: −log10 of the molar value. Structures can show the parent of a compound that is named as a salt. Where two headings read alike, the source gives them in different places.
How the values were obtained:
[1] = target: T1, human dopamine D1 receptor (Homo sapiens, UniProt P21728); test: [3H]-SCH-23390 binding to cloned human dopamine D1 receptors (CHO cell membranes)
T1 construct: A 1.4 Kb Hind III to Xho I fragment was subcloned into the vector pMMLV; expressed in transfected cells; host or cells: CHO cells, clone CHO-D1M#9 (plasmid pHD1MMLV), membranes
T1 sequence (P21728 whole entry, the tested form may be a part): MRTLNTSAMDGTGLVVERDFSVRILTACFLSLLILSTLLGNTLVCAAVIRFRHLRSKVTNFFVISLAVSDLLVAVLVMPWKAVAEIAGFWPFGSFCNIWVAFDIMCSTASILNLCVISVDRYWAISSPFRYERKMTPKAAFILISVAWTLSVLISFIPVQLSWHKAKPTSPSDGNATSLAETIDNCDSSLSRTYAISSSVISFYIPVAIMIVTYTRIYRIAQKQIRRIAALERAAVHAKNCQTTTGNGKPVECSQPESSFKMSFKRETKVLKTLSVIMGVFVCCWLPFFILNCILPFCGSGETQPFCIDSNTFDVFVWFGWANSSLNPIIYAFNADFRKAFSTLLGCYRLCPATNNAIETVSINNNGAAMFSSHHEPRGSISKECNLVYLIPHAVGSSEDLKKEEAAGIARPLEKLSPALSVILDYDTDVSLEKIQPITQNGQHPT

[2] = target: T2, D1 receptor (Homo sapiens, UniProt P21728); test: D1 Activation Adenylyl Cyclase Assay (cAMP FlashPlate, D1 transfected CHO cell line); type: cell-based
T2 construct: expressed in transfected cells; host or cells: D1 transfected CHO cell line
T2 sequence (P21728 whole entry): as the sequence (P21728 whole entry, the tested form may be a part) above
Method in brief: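 D1-transfected CHO cells (50,000/well) were exposed to compound 1/10 serial dilutions for 8 min at RT; cAMP measured by competitive 125I-cAMP FlashPlate against a standard curve. Response normalised between basal and saturating D1 agonist; EC50 at half-maximal stimulation, plateau reported as % maximal dopamine stimulation.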

[3] = target: human dopamine D2Long (D2L) receptors (Homo sapiens, UniProt P14416)
Chain of human dopamine D2Long (D2L) receptors (P14416 whole entry): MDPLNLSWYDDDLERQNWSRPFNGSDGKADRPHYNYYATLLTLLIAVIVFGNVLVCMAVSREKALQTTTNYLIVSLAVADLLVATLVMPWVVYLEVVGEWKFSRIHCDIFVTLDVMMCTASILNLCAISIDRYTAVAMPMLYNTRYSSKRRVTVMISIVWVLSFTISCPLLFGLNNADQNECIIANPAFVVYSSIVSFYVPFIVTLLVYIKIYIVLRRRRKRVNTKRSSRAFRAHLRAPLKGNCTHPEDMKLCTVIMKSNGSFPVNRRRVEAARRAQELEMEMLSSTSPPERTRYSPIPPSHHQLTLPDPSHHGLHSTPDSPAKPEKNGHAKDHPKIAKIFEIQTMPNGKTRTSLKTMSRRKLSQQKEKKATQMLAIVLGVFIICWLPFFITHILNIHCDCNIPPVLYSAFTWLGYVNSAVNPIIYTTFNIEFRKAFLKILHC

[4] = competitive binding, [3H]-SCH-23390, cloned human D1 in CHO membranes, read-out: D1 affinity Ki
[5] = agonist activity at the D1 receptor, adenylate cyclase assay, D1 transfected CHO cell line, read-out: D1 EC50

pKi [3] | pKi [1, 4] | pEC50 [2, 5] | Structure (SMILES) | pKi [1] | pEC50 [2]
≤ 5.00 | 6.31 | 7.70 | Cc1ccc2c(c1O)C[C@@H](C1CCN(C(=O)Nc3cc(C(F)(F)F)ccc3F)CC1)O[C@H]2CN [Example 124, 4-((1R,3S)-1-Aminomethyl-5-hydroxy-6-methyl-isochroman-3-yl)-piperidine-1-carboxylic acid (2-fluoro-5-trifluoromethyl-phenyl)-amide hydrobromide] | – | –
≤ 5.00 | 7.10 | 7.22 | COc1cccc(NC(=O)N2CCC([C@@H]3Cc4c(ccc(C)c4O)[C@H](CN)O3)CC2)c1 [Example 125, 4-((1R,3S)-1-Aminomethyl-5-hydroxy-6-methyl-isochroman-3-yl)-piperidine-1-carboxylic acid (3-methoxy-phenyl)-amide] | – | –
6.48 | 7.68 | 8.77 | Cc1ccc2c(c1O)C[C@@H](C1CCN(C(=O)Nc3cccc(O)c3)CC1)O[C@H]2CN [Example 126, 4-((1R,3S)-1-Aminomethyl-5-hydroxy-6-methyl-isochroman-3-yl)-piperidine-1-carboxylic acid (3-hydroxy-phenyl)-amide] | – | –
≤ 5.00 | 6.97 | 5.22 | Cc1ccc2c(c1O)C[C@@H](C1CCN(C(=O)Nc3ccc(F)cc3)CC1)O[C@H]2CN [Example 128, 4-((1R,3S)-1-Aminomethyl-5-hydroxy-6-methyl-isochroman-3-yl)-piperidine-1-carboxylic acid (4-fluoro-phenyl)-amide hydrochloride] | – | –
≤ 5.00 | 6.95 | 5.70 | Cc1ccc2c(c1O)C[C@@H](C1CCN(C(=O)Nc3ccccc3F)CC1)O[C@H]2CN [Example 129, 4-((1R,3S)-1-Aminomethyl-5-hydroxy-6-methyl-isochroman-3-yl)-piperidine-1-carboxylic acid (2-fluoro-phenyl)-amide hydrochloride] | – | –
≤ 5.00 | 7.29 | 8.19 | Cc1ccc2c(c1O)C[C@@H](C1CCN(C(=O)N(C)c3ccccc3)CC1)O[C@H]2CN [Example 131, 4-((1R,3S)-1-Aminomethyl-5-hydroxy-6-methyl-isochroman-3-yl)-piperidine-1-carboxylic acid methyl-phenyl-amide hydrochloride] | – | –
≤ 4.00 | 7.21 | 8.55 | Cc1ccc2c(c1O)C[C@@H](C1CCN(C(=O)N3CCCC3)CC1)O[C@H]2CN [Example 135, [4-((1R,3S)-1-Aminomethyl-5-hydroxy-6-methyl-isochroman-3-yl)-piperidin-1-yl]-pyrrolidin-1-yl-methanone hydrochloride] | – | –
6.69 | 6.86 | 9.96 | CCCCN(CCCC)C(=O)N1CCC([C@@H]2Cc3c(ccc(C)c3O)[C@H](CN)O2)CC1 [Example 139, 4-((1R,3S)-1-Aminomethyl-5-hydroxy-6-methyl-isochroman-3-yl)-piperidine-1-carboxylic acid dibutylamide hydrochloride] | – | –
≤ 4.00 | 7.74 | 8.72 | Cc1ccc2c(c1O)C[C@@H](C1CCN(S(=O)(=O)Cc3ccccc3)CC1)O[C@H]2CN [Example 142, (1R,3S)-1-Aminomethyl-6-methyl-3-(1-phenylmethanesulfonyl-piperidin-4-yl)-isochroman-5-ol hydrochloride] | – | –
6.22 | 7.04 | 8.44 | COc1ccc(S(=O)(=O)N2CCC([C@@H]3Cc4c(ccc(C)c4O)[C@H](CN)O3)CC2)cc1OC [Example 144, (1R,3S)-1-Aminomethyl-3-[1-(3,4-dimethoxy-benzenesulfonyl)-piperidin-4-yl]-6-methyl-isochroman-5-ol hydrochloride] | – | –
6.27 | 7.05 | 7.10 | Cc1ccc2c(c1O)C[C@@H](C1CCN(S(=O)(=O)c3ccc(C(C)(C)C)cc3)CC1)O[C@H]2CN [Example 146, (1R,3S)-1-Aminomethyl-3-[1-(4-tert-butyl-benzenesulfonyl)-piperidin-4-yl]-6-methyl-isochroman-5-ol hydrochloride] | – | –
6.21 | 6.97 | 6.40 | Cc1ccc2c(c1O)C[C@@H](C1CCN(S(=O)(=O)c3ccc4ccccc4c3)CC1)O[C@H]2CN [Example 147, (1R 3S)-1-Aminomethyl-6-methyl-3-[1-(naphthalene-2-sulfonyl)-piperidin-4-yl]-isochroman-5-ol hydrochloride] | – | –

Structure (SMILES) | pKi [3] | pKi [1, 4] | pEC50 [2, 5] | pKi [1] | pEC50 [2]
Cc1ccc2c(c1O)C[C@@H](C1CCN(C(=O)Oc3ccc(Cl)cc3)CC1)O[C@H]2CN [Example 115, 4-((1R,3S)-1-Aminomethyl-5-hydroxy-6-methyl-isochroman-3-yl)-piperidine-1-carboxylic acid 4-chloro-phenyl ester hydrochloride] | 6.30 | – | – | 7.41 | 7.32
Cc1ccc2c(c1O)C[C@@H](C1CCN(C(=O)Oc3ccccc3Cl)CC1)O[C@H]2CN [Example 116, 4-((1R,3S)-1-Aminomethyl-5-hydroxy-6-methyl-isochroman-3-yl)-piperidine-1-carboxylic acid 2-chloro-phenyl ester hydrochloride] | ≤ 4.00 | – | – | 7.49 | 8.34
Cc1ccc2c(c1O)C[C@@H](C1CCN(C(=O)Oc3ccc(Br)cc3)CC1)O[C@H]2CN [Example 117, 4-((1R,3S)-1-Aminomethyl-5-hydroxy-6-methyl-isochroman-3-yl)-piperidine-1-carboxylic acid 4-bromo-phenyl ester hydrochloride] | 6.39 | – | – | 7.23 | 8.37
Cc1ccc2c(c1O)C[C@@H](C1CCN(C(=O)Oc3ccc(F)cc3)CC1)O[C@H]2CN [Example 118, 4-((1R,3S)-1-Aminomethyl-5-hydroxy-6-methyl-isochroman-3-yl)-piperidine-1-carboxylic acid 4-fluoro-phenyl ester hydrochloride] | ≤ 5.00 | – | – | 7.40 | 8.07
Cc1ccc2c(c1O)C[C@@H](C1CCN(C(=O)Oc3ccccc3C(F)(F)F)CC1)O[C@H]2CN [Example 119, 4-((1R,3S)-1-Aminomethyl-5-hydroxy-6-methyl-isochroman-3-yl)-piperidine-1-carboxylic acid 2-trifluoromethyl-phenyl ester hydrochloride] | 6.19 | – | – | 7.27 | 8.51
COc1ccc(OC(=O)N2CCC([C@@H]3Cc4c(ccc(C)c4O)[C@H](CN)O3)CC2)cc1 [Example 120, 4-((1R,3S)-1-Aminomethyl-5-hydroxy-6-methyl-isochroman-3-yl)-piperidine-1-carboxylic acid 4-methoxy-phenyl ester hydrochloride] | 6.12 | – | – | 7.35 | 7.44
Cc1ccc2c(c1O)C[C@@H](C1CCN(C(=O)Oc3ccccc3O)CC1)O[C@H]2CN [Example 121, 4-((1R,3S)-1-Aminomethyl-5-hydroxy-6-methyl-isochroman-3-yl)-piperidine-1-carboxylic acid 2-hydroxy-phenyl ester hydrochloride] | 6.21 | – | – | 7.51 | 8.60
Cc1ccc2c(c1O)C[C@@H](C1CCN(C(=O)Oc3ccc4ccccc4c3)CC1)O[C@H]2CN [Example 123, 4-((1R,3S)-1-Aminomethyl-5-hydroxy-6-methyl-isochroman-3-yl)-piperidine-1-carboxylic acid naphthalen-2-yl ester hydrochloride] | 6.81 | – | – | 7.43 | 8.00
